Measurements taken from patent US20100267561A1, “HERBICIDAL PYRIDAZINONE DERIVATIVES” (priority 2007, published 2010).

Columns and labels:
Format in all cases: in vivo
[1] = tested on: eastern black (E.B.) nightshade (Solanum ptycanthum); test: Test B pre-/postemergence plant response; details: Preemergence
Outline: (§1)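 Seeds were sown and sprayed preemergence, while plants at 2 to 18 cm (1- to 4-leaf stage) got postemergence sprays. Compounds were formulated in a non-phytotoxic solvent mixture with surfactant. After 13 to 15 days in a greenhouse, injury was rated visually against untreated controls, 0 (no effect) to 100 (complete control).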

[2] = tested on: pigweed (Amaranthus retroflexus); test: Test B pre-/postemergence plant response
Outline: as §1

[3] = tested on: green foxtail (Setaria viridis); test: Test B pre-/postemergence plant response
Outline: as §1

[4] = tested on: corn (Zea mays); test: Test B pre-/postemergence plant response
Outline: as §1

[5] = tested on: wild oat (Avena fatua); test: Test B pre-/postemergence plant response
Outline: as §1

[6] = tested on: giant foxtail (Setaria faberii); test: Test B pre-/postemergence plant response
Outline: as §1

[7] = tested on: Russian thistle (Salsola iberica); test: Test B pre-/postemergence plant response; details: Preemergence
Outline: as §1

[8] = tested on: large crabgrass (Digitaria sanguinalis); test: Test B pre-/postemergence plant response
Outline: as §1

[9] = tested on: woolly cupgrass (Eriochloa villosa); test: Test B pre-/postemergence plant response
Outline: as §1

[10] = tested on: downy bromegrass (Bromus tectorum); test: Test B pre-/postemergence plant response; details: for Bromegrass, Downy plant response rating: 8 g ai/ha
Outline: as §1

[11] = tested on: umbrella sedge (Cyperus difformis); test: Test B flooded paddy test plant response
Outline: (§2)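 2-leaf plants; pots flooded 3 cm above soil; compound added to paddy water; depth maintained. Greenhouse 13–15 d. Visual rating vs controls, 0 (no effect) to 100 (complete control); dash = no result.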

[12] = tested on: barnyardgrass (Echinochloa crus-galli); test: Test B flooded paddy test plant response
Outline: as §2

[13] = tested on: ducksalad (Heteranthera limosa); test: Test B flooded paddy test plant response
Outline: as §2

[14] = tested on: rice (Oryza sativa); test: Test B flooded paddy test plant response
Outline: as §2

[15] = 31 g ai/ha, scale 0 to 100 (0 no effect, 100 complete control)
[16] = Preemergence, 31 g ai/ha, scale 0 to 100 (0 no effect, 100 complete control)
[17] = Preemergence, 62 g ai/ha, scale 0 to 100
[18] = Preemergence, 8 g ai/ha, scale 0 to 100
[19] = Preemergence, 16 g ai/ha, scale 0 to 100
[20] = Preemergence, 31 g ai/ha, 0 to 100 scale, 0 no effect, 100 complete control
[21] = Preemergence, 16 g ai/ha, scale 0 to 100 (0 no effect, 100 complete control)
[22] = Flood (flooded paddy test), 62 g ai/ha, scale 0 to 100, 0 no effect, 100 complete control
[23] = Flood (flooded paddy test), 125 g ai/ha, scale 0 to 100, 0 no effect, 100 complete control
[24] = Flood (flooded paddy test), 250 g ai/ha, scale 0 to 100, 0 no effect, 100 complete control
[25] = Flood, 31 g ai/ha, scale 0 to 100
[26] = 62 g ai/ha, 0 to 100 scale, 0 no effect, 100 complete control
[27] = 8 g ai/ha, postemergence, 0-100 scale
[28] = 16 g ai/ha, postemergence, 0-100 scale
[29] = Postemergence, 31 g ai/ha, scale 0 to 100
[30] = Postemergence, 62 g ai/ha, scale 0 to 100, 0 no effect, 100 complete control
[31] = Preemergence, 62 g ai/ha, 0 to 100 scale, 0 no effect, 100 complete control
[32] = Postemergence, 16 g ai/ha, scale 0 to 100

## Cc1cc(-c2ccc(Cl)cc2)nn1-c1c(OS(=O)(=O)c2ccccc2[N+](=O)[O-])cnn(C)c1=O [Compound 51]
[1]; [15]
  Plant response rating, Nightshade, E. B.: 0
[1]; 62 g ai/ha, scale 0 to 100
  Plant response rating, Nightshade, E. B.: 0
[2]; [16]
  Plant response rating, Pigweed: 0
[2]; [17]
  Plant response rating, Pigweed: 0
[2]; [18]
  Pigweed plant response rating: 0
[2]; [19]
  Pigweed plant response rating: 0
[3]; [20]
  Plant response rating, Foxtail, Green: 98
[3]; [17]
  Plant response rating, Foxtail, Green: 100
[3]; [18]
  Foxtail, Green plant response rating: 50
[3]; [19]
  Foxtail, Green plant response rating: 90
[4]; [20]
  Plant response rating, Corn: 60
[4]; [17]
  Plant response rating, Corn: 80
[5]; [16]
  Plant response rating, Oat, Wild: 80
[5]; [17]
  Plant response rating, Oat, Wild: 90
[5]; [18]
  Oat, Wild plant response rating: 0
[5]; [19]
  Oat, Wild plant response rating: 10
[6]; [20]
  Plant response rating, Foxtail, Giant: 100
[6]; [17]
  Plant response rating, Foxtail, Giant: 100
[6]; [18]
  Foxtail, Giant plant response rating: 80
[6]; [19]
  Foxtail, Giant plant response rating: 100
[7]; [15]
  Plant response rating, Russian Thistle: 0
[7]; 62 g ai/ha, scale 0 to 100
  Plant response rating, Russian Thistle: 0
[7]; 8 g ai/ha, scale 0 to 100
  Russian Thistle plant response rating: 0
[7]; 16 g ai/ha, scale 0 to 100
  Russian Thistle plant response rating: 0
[8]; [20]
  Plant response rating, Crabgrass, Large: 75
[8]; [17]
  Plant response rating, Crabgrass, Large: 90
[8]; [18]
  Crabgrass, Large plant response rating: 0
[8]; [19]
  Crabgrass, Large plant response rating: 20
[9]; [20]
  Plant response rating, Cupgrass, Woolly: 90
[9]; [17]
  Plant response rating, Cupgrass, Woolly: 100
[9]; [18]
  Cupgrass, Woolly plant response rating: 0
[9]; [19]
  Cupgrass, Woolly plant response rating: 80
[10]; [21]
  Plant response rating, Bromegrass, Downy: 0
[10]; [20]
  Plant response rating, Bromegrass, Downy: 45
[10]; [17]
  Plant response rating, Bromegrass, Downy: 85
[10]; Preemergence, scale 0 to 100
  Bromegrass, Downy plant response rating: 0
[11]; [22]
  Plant response rating, Sedge, Umbrella: 40
[11]; [23]
  Plant response rating, Sedge, Umbrella: 60
[11]; [24]
  Plant response rating, Sedge, Umbrella: 70
[11]; [25]
  Plant response rating, Sedge, Umbrella: 0
[12]; [22]
  Plant response rating, Barnyardgrass: 0
[12]; [23]
  Plant response rating, Barnyardgrass: 10
[12]; [24]
  Plant response rating, Barnyardgrass: 30
[12]; [25]
  Plant response rating, Barnyardgrass: 0
[13]; [22]
  Plant response rating, Ducksalad: 0
[13]; [23]
  Plant response rating, Ducksalad: 0
[13]; [24]
  Plant response rating, Ducksalad: 0
[13]; [25]
  Plant response rating, Ducksalad: 0
[14]; [22]
  Plant response rating, Rice: 0
[14]; [23]
  Plant response rating, Rice: 0
[14]; [24]
  Plant response rating, Rice: 0
[14]; [25]
  Plant response rating, Rice: 0

## CCc1cc(-c2ccc(Br)cc2)nn1-c1c(O)cnn(C)c1=O [Compound 61]
[1]; [15]
  Plant response rating, Nightshade, E. B.: 0
[1]; [26]
  Plant response rating, Nightshade, E. B.: 0
[1]; 16 g ai/ha, scale 0 to 100
  Nightshade, E. B. plant response rating: 0
[2]; [27]
  Pigweed plant response rating: 0
[2]; [28]
  Pigweed plant response rating: 0
[2]; [29]
  Plant response rating, Pigweed: 0
[2]; [30]
  Plant response rating, Pigweed: 0
[2]; [16]
  Plant response rating, Pigweed: 0
[2]; [31]
  Plant response rating, Pigweed: 0
[2]; [18]
  Pigweed plant response rating: 0
[2]; [19]
  Pigweed plant response rating: 0
[3]; [27]
  Foxtail, Green plant response rating: 95
[3]; [32]
  Plant response rating, Foxtail, Green: 100
[3]; [29]
  Plant response rating, Foxtail, Green: 100
[3]; [30]
  Plant response rating, Foxtail, Green: 100
[3]; [16]
  Plant response rating, Foxtail, Green: 100
[3]; [31]
  Plant response rating, Foxtail, Green: 100
[3]; [18]
  Foxtail, Green plant response rating: 100
[3]; [19]
  Foxtail, Green plant response rating: 100
[4]; [27]
  Corn plant response rating: 75
[4]; [32]
  Plant response rating, Corn: 100
[4]; [29]
  Plant response rating, Corn: 100
[4]; [30]
  Plant response rating, Corn: 100
[4]; [16]
  Plant response rating, Corn: 100
[4]; [31]
  Plant response rating, Corn: 100
[4]; [18]
  Corn plant response rating: 95
[4]; [19]
  Corn plant response rating: 98
[5]; [27]
  Oat, Wild plant response rating: 100
[5]; [28]
  Oat, Wild plant response rating: 100
[5]; [29]
  Plant response rating, Oat, Wild: 100
[5]; [30]
  Plant response rating, Oat, Wild: 100
[5]; [16]
  Plant response rating, Oat, Wild: 95
[5]; [31]
  Plant response rating, Oat, Wild: 100
[5]; [18]
  Oat, Wild plant response rating: 40
[5]; [19]
  Oat, Wild plant response rating: 90
[6]; [27]
  Foxtail, Giant plant response rating: 98
[6]; [32]
  Plant response rating, Foxtail, Giant: 100
[6]; [29]
  Plant response rating, Foxtail, Giant: 100
[6]; [30]
  Plant response rating, Foxtail, Giant: 100
[6]; [16]
  Plant response rating, Foxtail, Giant: 100
[6]; [31]
  Plant response rating, Foxtail, Giant: 100
[6]; [18]
  Foxtail, Giant plant response rating: 75
[6]; [19]
  Foxtail, Giant plant response rating: 100
[7]; [15]
  Plant response rating, Russian Thistle: 0
[7]; [26]
  Plant response rating, Russian Thistle: 0
[7]; 8 g ai/ha, scale 0 to 100
  Russian Thistle plant response rating: 0
[7]; 16 g ai/ha, scale 0 to 100
  Russian Thistle plant response rating: 0
[8]; [27]
  Crabgrass, Large plant response rating: 98
[8]; [32]
  Plant response rating, Crabgrass, Large: 100
[8]; [29]
  Plant response rating, Crabgrass, Large: 100
[8]; [30]
  Plant response rating, Crabgrass, Large: 100
[8]; [16]
  Plant response rating, Crabgrass, Large: 100
[8]; [31]
  Plant response rating, Crabgrass, Large: 100
[8]; [18]
  Crabgrass, Large plant response rating: 50
[8]; [19]
  Crabgrass, Large plant response rating: 95
[9]; [27]
  Cupgrass, Woolly plant response rating: 98
[9]; [32]
  Plant response rating, Cupgrass, Woolly: 100
[9]; [29]
  Plant response rating, Cupgrass, Woolly: 100
[9]; [30]
  Plant response rating, Cupgrass, Woolly: 100
[9]; [16]
  Plant response rating, Cupgrass, Woolly: 100
[9]; [31]
  Plant response rating, Cupgrass, Woolly: 100
[9]; [18]
  Cupgrass, Woolly plant response rating: 80
[9]; [19]
  Cupgrass, Woolly plant response rating: 98
[10]; postemergence, 0-100 scale
  Bromegrass, Downy plant response rating: 80
[10]; [32]
  Plant response rating, Bromegrass, Downy: 90
[10]; [29]
  Plant response rating, Bromegrass, Downy: 98
[10]; [30]
  Plant response rating, Bromegrass, Downy: 98
[10]; [21]
  Plant response rating, Bromegrass, Downy: 90
[10]; [16]
  Plant response rating, Bromegrass, Downy: 95
[10]; [31]
  Plant response rating, Bromegrass, Downy: 95
[10]; Preemergence, scale 0 to 100
  Bromegrass, Downy plant response rating: 0
[11]; [22]
  Plant response rating, Sedge, Umbrella: 0
[11]; [23]
  Plant response rating, Sedge, Umbrella: 0
[11]; [24]
  Plant response rating, Sedge, Umbrella: 30
[11]; [25]
  Plant response rating, Sedge, Umbrella: 0
[12]; [22]
  Plant response rating, Barnyardgrass: 0
[12]; [23]
  Plant response rating, Barnyardgrass: 50
[12]; [24]
  Plant response rating, Barnyardgrass: 100
[12]; [25]
  Plant response rating, Barnyardgrass: 0
[13]; [22]
  Plant response rating, Ducksalad: 0
[13]; [23]
  Plant response rating, Ducksalad: 0
[13]; [24]
  Plant response rating, Ducksalad: 70
[13]; [25]
  Plant response rating, Ducksalad: 0
[14]; [22]
  Plant response rating, Rice: 0
[14]; [23]
  Plant response rating, Rice: 15
[14]; [24]
  Plant response rating, Rice: 60
[14]; [25]
  Plant response rating, Rice: 0
